Experimental data as given in patent US8372839B2, “Bipartite inhibitors of bacterial RNA polymerase” (priority 2005, dated 2013).
Starred links: 1 amine or outer side, 2 acyl side, 3 side chain; linkers in the order of their positions; H or OH if unused. Positions of bridges follow the written chain, without caps; N, C: chain ends. Non-standard residues stand in square brackets, D forms with d. Residues, ends and D or L forms follow the SMILES beside them. *: point of attachment. X2 = CO[C@H]1/C=C/O[C@@]2(C)Oc3c(C)c(O)c4c(O)c(cc(OCC(=O)NCCCCCCCCCCCCN*)c4c3C2=O)NC(=O)/C(C)=C\C=C\[C@H](C)[C@H](O)[C@@H](C)[C@@H](O)[C@@H](C)[C@H](OC(C)=O)[C@@H]1C; X1 = N=C(CCCSCC(=O)[*:3])NCCCC[C@H](N[*:1])C(=O)[*:2]

Legend:
Escherichia coli RNAP = target: T1, Escherichia coli RNAP (Escherichia coli, UniProt P0A8T7+P0A8V2); assay: biochemical; assay type: biochemical; conditions: for inhibition of transcription (in words): transcription assay, RNAP and [Asn516]β-RNAP
T1 construct: made in house
Experimental: RNAP was prepared as described in Niu, et al. (1996) Cell 87, 1123-1134. [Asn516]β-RNAP, a strongly rifamycin-resistant RNAP derivative (see Jin, et al. (1988) J. Mol. Biol. 202, 45-58) was prepared in the same manner, except that plasmid pRL706-516N was used in place of plasmid pREII-NHα. [Plasmid pRL706-516N, which encodes C-terminally hexahistidine tagged [Asn516]β, was constructed from plasmid pRL706 (Severinov, et al. (1997) J. Biol. Chem. 272, 24137-24140) by use of site-directed mutagenesis (QuikChange Site-Directed Mutagenesis Kit; Stratagene).]
RNAP or [Asn516]β-RNAP (3 fmol; Example 3.1) and each test compound (250 fmol-100 pmol) were pre-equilibrated 30 min at 37° C. in 15 μl buffer A (50 mM Tris-HCl, pH 8.0, 100 mM KCl, 10 mM MgCl2, 1 mM dithiothreitol, 10 ug/ml bovine serum albumin, and 5% glycerol). To the reaction mixture, was added 1 μl of 1 μM DNA fragment comprising positions −60 to +46 of the bacteriophage T5 N25 promoter (1 pmol; prepared as in Revyakin, et al. (2006) Science, in press), and, following incubation 15 min at 37° C., RNA synthesis was initiated by addition of […] of 6.7 mM ATP and 30 μM α[^32P]-UTP (0.6 Bq/fmol). Following 10 min at 37° C., the reaction was terminated by addition of 10/j 80% formamide, 10 mM EDTA, 0.04% bromophenol blue, and 0.04% xylene cyanol. Reaction products were heated […] at 90° C. and were analyzed by urea-PAGE (Sambrook, et al. (2001) Molecular Cloning: A Laboratory Manual, CSHL Press, Cold Spring Harbor, N.Y.), and quantified using a storage-phosphor scanner.

[1] = tested on: Escherichia coli strain D21 f2/tolC; assay: Susceptibility assay (spot on top agar); assay type: cell-based; conditions: for lowest concentration of test compound solution resulting in detectable inhibition of bacterial growth: 2.5 μl aliquots spotted, 12 h at 37° C.
Experimental: Aliquots (2.5 μl) of 1.56, 3.12, 6.25, 12.5, 25, 50, 100, 200, and 400 μM solutions of a test compound were spotted on plates containing Escherichia coli strain D21 f2/tolC (Fralick, et al. (1994) J. Bacteriol. 176, 6404-6406; ˜10^8 cells) in LB top agar (Sambrook, et al. (2001) Sambrook, et al. (2001) Molecular Cloning. A Laboratory Manual, CSHL Press, Cold Spring Harbor, N.Y.; 3.5 ml) overlaid on LB agar (Sambrook, et al. (2001) Sambrook, et al. (2001) Molecular Cloning: A Laboratory Manual, CSHL Press, Cold Spring Harbor, N.Y.; 25 ml).

[Asn516]β-RNAP = [Asn516]β-RNAP (Escherichia coli, UniProt P0A8T7+P0A8V2, D516N)
Experimental: Following 10 min at 37° C., the reaction was terminated by addition of 10/j 80% formamide, 10 mM EDTA, 0.04% bromophenol blue, and 0.04% xylene cyanol.

With `CC[C@H](C)[C@H](NC(=O)CNC(=O)[C@@H](NC(=O)[C@H](Cc1ccccc1)NC(=O)[C@H](Cc1ccc(O)cc1)NC(=O)[C@@H]1CCC(=O)NCC(=O)NCC(=O)N[C@@H](C)C(=O)NCC(=O)N[C@@H](CCCCNC(=N)CCCSCC(=O)NCCCCCCCCCCCCNC(=O)COc2cc3c(O)c4c(O)c(C)c5c(c24)C(=O)[C@@](C)(O/C=C/[C@H](OC)[C@@H](C)[C@@H](OC(C)=O)[C@H](C)[C@H](O)[C@H](C)[C@@H](O)[C@@H](C)/C=C/C=C(/C)C(=O)N3)O5)C(=O)N[C@@H](C(C)C)C(=O)N2CCC[C@H]2C(=O)N1)C(C)C)C(=O)NCC(=O)N[C@H](C(=O)N1CCC[C@H]1C(=O)N[C@H](C(=O)N[C@@H](CO)C(=O)N[C@@H](Cc1ccccc1)C(=O)N[C@@H](Cc1ccc(O)cc1)C(=O)NCC(=O)O)[C@@H](C)CC)[C@@H](C)O` [rifamicrocin 1-12, {rifamycin SV}—{CH2C(O)NH(CH2)12NHC(O)CH2S(CH2)3C(NH2^+)}-{[Lys5]microcin J25}] (GGAG[X1](X2)VPEYFVGIGTPISFYG-OH; lactam N-8 (inferred); C-terminus assumed) the IC50 (Escherichia coli RNAP) was 2 nM and the “inhibition of transcription (in words)” value (Escherichia coli RNAP) was “potently to inhibit transcription”.
`CO[C@H]1/C=C/O[C@@]2(C)Oc3c(C)c([O-])c4c(O)c(cc(O)c4c3C2=O)NC(=O)/C(C)=C\C=C\[C@H](C)[C@H](O)[C@@H](C)[C@@H](O)[C@@H](C)[C@H](OC(C)=O)[C@@H]1C.[Na+]` [rifamycin SV, reference compound] was tested, and the “lowest concentration of test compound solution resulting in detectable inhibition of bacterial growth” value [1] was 50 µM.
For “{Rifamycin SV}—{CH2C(O)NH(CH2)nNHC(O)CH2S(CH2)3C(NH2^+)}-{[Lys5]MccJ25} [rifamicrocin 1-6]”, the “inhibition of transcription (in words)” value (Escherichia coli RNAP) was “potently to inhibit transcription”.
“{Rifamycin SV}—{CH2C(O)NH(CH2)nNHC(O)CH2S(CH2)3C(NH2^+)}-{[Lys5]MccJ25} [rifamicrocin 1-8]” was tested, and the “inhibition of transcription (in words)” value (Escherichia coli RNAP) was “potently to inhibit transcription”.
“{Rifamycin SV}—{CH2C(O)NH(CH2)nNHC(O)CH2S(CH2)3C(NH2^+)}-{[Lys5]MccJ25} [rifamicrocin 1-10]” was tested, and the “inhibition of transcription (in words)” value (Escherichia coli RNAP) was “potently to inhibit transcription”, the “lowest concentration of test compound solution resulting in detectable inhibition of bacterial growth” value [1] was 12.5 µM and the “potency on bacterial growth relative to rifamycin SV” value ([1]; vs rifamycin SV) was ~4 times higher.
For “{rifamycin SV}—{CH2C(O)NH(CH2)10NHC(O)(CH2)2(C2N3)(CH2)4C(O)}-{[Lys5]microcin J25} [rifamicrocin 2-10]”, the “inhibition of transcription (in words)” value (Escherichia coli RNAP) was “potently to inhibit transcription” and the “potency relative to prior-art rifamycin B, [Asn516]β-RNAP” value ([Asn516]β-RNAP) was “approximately 2 times higher”.
